In patent US4931471A, “Amides of paramethoxycinnamic and utilization thereof as solar filters” (priority 1985, dated 1990):
Blank lines part the entries; values can stand above or below the compound they belong to.

What was measured:
[1] = UV spectrum (absorption maximum); assay type: physicochemical
[2] = system: esterases in the skin and plasma; settings: loss of UV-B filtering power on the skin; cited from earlier work
[3] = man; cited from earlier work
[4] = Degradation in rat skin homogenate (TLC after 12 h); assay type: in vitro ADME
Method: The hypodermis was carefully detached by means of a razor blade. The remaining epidermis and dermis were cut into thin lamellae and placed in a conical flask containing 20 ml of phosphate buffer of pH 8. The lamellae were then ground in a Potter mill with large teeth so as to prevent the proteases from being released from the cell nuclei. The preparation obtained was centrifuged at 25,000 rpm and the supernatant was removed. 10 μmol of the test product were suspended in 4 ml of the homogenate. After 12 h, the solutions were analyzed by TLC.
When using rat skin homogenates such as those described above, no degradation of the amides according to Examples I and III to XI was observed, whereas the amide of Example II undergoes 30% degradation.

- UV spectrum: maximum ([1]; CHCl3): 312 nm
Compound: COC(=O)[C@H](Cc1ccc(O)cc1)NC(=O)C=Cc1ccc(OC)cc1 [Example VII, Methyl ester of N-(4-methoxycinnamoyl)-L-tyrosine]

- UV spectrum: maximum ([1]; CHCl3): 309 nm
Compound: Amide of paramethoxycinnamic acid and the methyl ester of oxidized qlutathione [IX]

- UV spectrum: maximum ([1]; CHCl3): 309 nm
Compound: COC(=O)[C@H](CSSC[C@H](NC(=O)C=Cc1ccc(OC)cc1)C(=O)OC)NC(=O)C=Cc1ccc(OC)cc1 [IV, Dimethyl ester of N,N'-di(4-methoxycinnamoyl)-L-cystine]

- UV spectrum: maximum ([1]; CHCl3): 314 nm
Compound: COC(=O)[C@H](CS)NC(=O)C=Cc1ccc(OC)cc1 [III, Methyl ester of N-(4-methoxycinnamoyl)-L-cysteine]

- UV spectrum: maximum ([1]; 100° ethanol): 350 nm
Compound: COC(=O)C=Cc1cn(C(=O)C=Cc2ccc(OC)cc2)cn1 [Example VIII, Methyl ester of (4-methoxycinnamoyl)imidazol-4-ylprop-2-enoic acid (amide of paramethoxycinnamic acid and the methyl ester of urocanic acid)]

- UV spectrum: maximum ([1]; CHCl3): 285 nm
Compound: O=C(C=Cc1c[nH]cn1)N1CCCCC1 [X, N-[3-(1H-Imidazol-4-yl)-1-oxoprop-2-enyl]piperidine]

The next lines start with the compound.

Compound: COc1ccc(C=CC(=O)N2CCCCC2)cc1 [Example I, N-(4-Methoxycinnamoyl)piperidine]
- UV spectrum: maximum ([1]; CHCl3): 295 nm

Compound: COC(=O)/C=C/c1cn(C(=O)C=Cc2ccc(OC)cc2)cn1 [XI, Amide of paramethoxycinnamic acid and the methyl ester of trans-urocanic acid]
- absorbing UV-A and UV-B radiation simultaneously ([1]; in words): capable of absorbing UV-A and UV-B radiation simultaneously

Compound: CCCCC(CC)COC(=O)C=Cc1ccc(OC)cc1 (stereo not drawn) [Ibis]
- hydrolysis under the influence of the esterases in the skin and plasma [2]: hydrolyzes to p-methoxycinnamic acid

Compound: COC(=O)[C@H](CSCc1ccccc1)NC(=O)C=Cc1ccc(OC)cc1 [Example VI, Methyl ester of S-benzyl-N-(4-methoxycinnamoyl)-L-cysteine]
- UV spectrum: maximum ([1]; CHCl3): 310 nm

Compound: COC(=O)[C@H](CSC)NC(=O)C=Cc1ccc(OC)cc1 [Example V, Methyl ester of S-methyl-N-(4-methoxycinnamoyl)-L-cysteine]
- UV spectrum: maximum ([1]; CHCl3): 306 nm

Compound: O=C(O)/C=C/c1c[nH]cn1 [urocanic acid]
- passage into the blood [3]: passage into human blood

Compound: COC(=O)[C@H](CCSC)NC(=O)C=Cc1ccc(OC)cc1 [Example II, Methyl ester of N-(4-methoxycinnamoyl)-L-methionine]
- UV spectrum: maximum ([1]; CHCl3): 309 nm
- degradation (in words) [4]: slightly degraded
- metabolised at 12 h ([4]; pH 8): 30%
